Test results published in PubChem BioAssay (NCI).
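Following 48 hours of exposure in 96-well plates, responses at five concentrations were used to interpolate endpoints linearly. TGI marks complete inhibition of growth.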

Tests used:
Assay in all cases: NCI-60 cell line screen, 48 h
U251 CNS = test system: U251 CNS
HCT-116 colon = test system: HCT-116 colon
CAKI-1 renal = test system: CAKI-1 renal
IGROV1 ovarian = test system: IGROV1 ovarian
OVCAR-3 ovarian = test system: OVCAR-3 ovarian
MDA-N = test system: MDA-N
SR leukemia = test system: SR leukemia
BT-549 breast = test system: BT-549 breast
OVCAR-8 ovarian = test system: OVCAR-8 ovarian
UACC-62 melanoma = test system: UACC-62 melanoma
NCI/ADR-RES ovarian = test system: NCI/ADR-RES ovarian
OVCAR-4 ovarian = test system: OVCAR-4 ovarian
SF-268 CNS = test system: SF-268 CNS
SW-620 colon = test system: SW-620 colon
HOP-92 NSCLC = test system: HOP-92 NSCLC
SF-295 CNS = test system: SF-295 CNS
MALME-3M melanoma = test system: MALME-3M melanoma
HT29 colon = test system: HT29 colon
SK-OV-3 ovarian = test system: SK-OV-3 ovarian
NCI-H226 lung = test system: NCI-H226 lung
NCI-H460 lung = test system: NCI-H460 lung
SK-MEL-28 melanoma = test system: SK-MEL-28 melanoma
MOLT-4 leukemia = test system: MOLT-4 leukemia
PC-3 prostate = test system: PC-3 prostate
EKVX NSCLC = test system: EKVX NSCLC
SN12C renal = test system: SN12C renal
NCI-H23 lung = test system: NCI-H23 lung
TK-10 renal = test system: TK-10 renal
A498 renal = test system: A498 renal
HL-60(TB) leukemia = test system: HL-60(TB) leukemia
MDA-MB-231 breast = test system: MDA-MB-231 breast
K-562 leukemia = test system: K-562 leukemia
MCF7 breast = test system: MCF7 breast
SK-MEL-2 melanoma = test system: SK-MEL-2 melanoma
HS 578T breast = test system: HS 578T breast
SK-MEL-5 melanoma = test system: SK-MEL-5 melanoma
SNB-19 CNS = test system: SNB-19 CNS
RXF 393 renal = test system: RXF 393 renal
SF-539 CNS = test system: SF-539 CNS
M14 melanoma = test system: M14 melanoma
HOP-62 NSCLC = test system: HOP-62 NSCLC
HCC-2998 colon = test system: HCC-2998 colon
MDA-MB-435 = test system: MDA-MB-435
KM12 colon = test system: KM12 colon
UACC-257 melanoma = test system: UACC-257 melanoma
COLO 205 colon = test system: COLO 205 colon
ACHN renal = test system: ACHN renal
T-47D breast = test system: T-47D breast
SNB-75 CNS = test system: SNB-75 CNS
NCI-H522 lung = test system: NCI-H522 lung
UO-31 renal = test system: UO-31 renal
DU-145 prostate = test system: DU-145 prostate
A549 NSCLC = test system: A549 NSCLC
HCT-15 colon = test system: HCT-15 colon
CCRF-CEM leukemia = test system: CCRF-CEM leukemia
RPMI-8226 leukemia = test system: RPMI-8226 leukemia
LOX IMVI melanoma = test system: LOX IMVI melanoma
OVCAR-5 ovarian = test system: OVCAR-5 ovarian
786-0 renal = test system: 786-0 renal

CC(=O)OCC1OC(n2c(-c3ccc(C)cc3)cc(-c3ccco3)c(C#N)c2=S)C(OC(C)=O)C(OC(C)=O)C1OC(C)=O (configuration not stated)
TGI (U251 CNS): > 100 µM
TGI (HCT-116 colon): > 100 µM
TGI (CAKI-1 renal): > 100 µM
TGI (IGROV1 ovarian): > 100 µM
TGI (OVCAR-3 ovarian): > 100 µM
TGI (MDA-N): > 100 µM
TGI (SR leukemia): > 100 µM
TGI (BT-549 breast): > 100 µM
TGI (OVCAR-8 ovarian): > 100 µM
TGI (UACC-62 melanoma): 45.2 µM
TGI (NCI/ADR-RES ovarian): > 100 µM
TGI (OVCAR-4 ovarian): > 100 µM
TGI (SF-268 CNS): > 100 µM
TGI (SW-620 colon): > 100 µM
TGI (HOP-92 NSCLC): 81.1 µM
TGI (SF-295 CNS): > 100 µM
TGI (MALME-3M melanoma): > 100 µM
TGI (HT29 colon): > 100 µM
TGI (SK-OV-3 ovarian): > 100 µM
TGI (NCI-H226 lung): > 100 µM
TGI (NCI-H460 lung): > 100 µM
TGI (SK-MEL-28 melanoma): > 100 µM
TGI (MOLT-4 leukemia): > 100 µM
TGI (PC-3 prostate): > 100 µM
TGI (EKVX NSCLC): > 100 µM
TGI (SN12C renal): > 100 µM
TGI (NCI-H23 lung): > 100 µM
TGI (TK-10 renal): > 100 µM
TGI (A498 renal): > 100 µM
TGI (HL-60(TB) leukemia): > 100 µM
TGI (MDA-MB-231 breast): 78.4 µM
TGI (K-562 leukemia): > 100 µM
TGI (MCF7 breast): > 100 µM
TGI (SK-MEL-2 melanoma): > 100 µM
TGI (HS 578T breast): > 100 µM
TGI (SK-MEL-5 melanoma): > 100 µM
TGI (SNB-19 CNS): > 100 µM
TGI (RXF 393 renal): > 100 µM
TGI (SF-539 CNS): 36.1 µM
TGI (M14 melanoma): > 100 µM
TGI (HOP-62 NSCLC): > 100 µM
TGI (HCC-2998 colon): > 100 µM
TGI (MDA-MB-435): > 100 µM
TGI (KM12 colon): > 100 µM
TGI (UACC-257 melanoma): > 100 µM
TGI (COLO 205 colon): > 100 µM
TGI (ACHN renal): > 100 µM
TGI (T-47D breast): > 100 µM
TGI (SNB-75 CNS): > 100 µM
TGI (NCI-H522 lung): > 100 µM
TGI (UO-31 renal): > 100 µM
TGI (DU-145 prostate): > 100 µM
TGI (A549 NSCLC): > 100 µM
TGI (HCT-15 colon): > 100 µM
TGI (CCRF-CEM leukemia): > 100 µM
TGI (RPMI-8226 leukemia): > 100 µM
TGI (LOX IMVI melanoma): > 100 µM
TGI (OVCAR-5 ovarian): > 100 µM

Cc1c(-c2ccccc2)c(C#N)c2nnn(-c3ccc([N+](=O)[O-])cc3)c(=O)n12
TGI (U251 CNS): 21.5 µM
TGI (HCT-116 colon): > 100 µM
TGI (CAKI-1 renal): > 100 µM
TGI (IGROV1 ovarian): 25.3 µM
TGI (OVCAR-3 ovarian): 39.8 µM
TGI (786-0 renal): 18.4 µM
TGI (MDA-N): > 100 µM
TGI (SR leukemia): > 100 µM
TGI (BT-549 breast): 69.9 µM
TGI (OVCAR-8 ovarian): 23.6 µM
TGI (UACC-62 melanoma): > 100 µM
TGI (NCI/ADR-RES ovarian): 64.7 µM
TGI (OVCAR-4 ovarian): 38.2 µM
TGI (SF-268 CNS): 45.3 µM
TGI (SW-620 colon): > 100 µM
TGI (HOP-92 NSCLC): 45.4 µM
TGI (SF-295 CNS): 74.9 µM
TGI (MALME-3M melanoma): > 100 µM
TGI (HT29 colon): 75.3 µM
TGI (SK-OV-3 ovarian): > 100 µM
TGI (NCI-H226 lung): 34 µM
TGI (NCI-H460 lung): > 100 µM
TGI (SK-MEL-28 melanoma): > 100 µM
TGI (PC-3 prostate): 9.54 µM
TGI (EKVX NSCLC): 23.8 µM
TGI (SN12C renal): 69.2 µM
TGI (NCI-H23 lung): 86.5 µM
TGI (TK-10 renal): 90 µM
TGI (A498 renal): 49 µM
TGI (HL-60(TB) leukemia): 13.9 µM
TGI (MDA-MB-231 breast): 27.2 µM
TGI (K-562 leukemia): > 100 µM
TGI (MCF7 breast): 68.7 µM
TGI (SK-MEL-2 melanoma): 28.6 µM
TGI (HS 578T breast): > 100 µM
TGI (SK-MEL-5 melanoma): > 100 µM
TGI (RXF 393 renal): 48.2 µM
TGI (SF-539 CNS): 27 µM
TGI (HOP-62 NSCLC): 45 µM
TGI (HCC-2998 colon): > 100 µM
TGI (MDA-MB-435): > 100 µM
TGI (KM12 colon): > 100 µM
TGI (UACC-257 melanoma): > 100 µM
TGI (COLO 205 colon): 40.6 µM
TGI (ACHN renal): > 100 µM
TGI (T-47D breast): > 100 µM
TGI (SNB-75 CNS): 44.1 µM
TGI (NCI-H522 lung): 33 µM
TGI (DU-145 prostate): 23.2 µM
TGI (HCT-15 colon): > 100 µM
TGI (CCRF-CEM leukemia): 58.2 µM
TGI (RPMI-8226 leukemia): > 100 µM
TGI (LOX IMVI melanoma): 42.8 µM
TGI (OVCAR-5 ovarian): 95.4 µM
